Source: EP3521435A1, “A HIGH STRINGENCY SELECTION SYSTEM FOR PROTEIN EXPRESSION IN PROLINE-AUXOTROPHIC CELLS” (Bayer AG, priority 2018, dated 2019)

Key:
CHO-K1 cells [1] = test: Flow cytometric analysis of GFP expression (MFI, high fluorescing cells) in stably selected cell populations; format: cell-based, Chinese hamster; settings: day 15 post-transfection, pJF1555
Experimental: (§1) To efficiently test the impact of different procedures on improving selection stringency, experimental testing in stable cell populations was performed. As test molecules, enhanced green fluorescent protein (GFP) as well as a human IgG1 were chosen. CHO-K1 cells adapted to growth in suspension in defined medium were obtained from SAFC and cultivated in EX-CELL CD CHO Fusion medium (SAFC 14365C). Custom-made EX-CELL CD CHO Fusion medium without L-Proline (Pro) and without L-Ornithine (Orn) ("proline-free medium") was obtained from SAFC. The expression vector system was based on modified versions of "CET 1019 AS-puro-SceI" and "CET 1019 AD-puro-SceI" for GFP and human IgG1, respectively, from Merck-Millipore, containing the Puromycin selection marker (Puromycin N-acetyl-transferase) known to exert a high selection stringency. To minimize variations in cell populations derived from using different transfections or different vectors, the first series of experiments were conducted using vectors into which a P5CS expression cassette was cloned upstream of a UCOE element, in addition to the Puromycin selection marker present downstream of a gene of interest. This way, it was possible to pool different transfections using the same vector to obtain a common starting point, and split the mixture according to different selection conditions, minimizing any variations that are not due to selection conditions themselves. Expression of long and short isoform of murine P5CS (Protein: Delta-1-pyrroline-5-carboxylate synthase; Gene: Aldh18a1; UniProtKB accession number: Q9Z110-1 & Q9Z110-2) was driven by a SV40 promoter. A SV40 polyadenylation sequence was used at the 3' end of the gene. More details can be found in Table 1. Typically, CHO cells were cultivated in EX-CELL CD CHO Fusion medium containing 6 mM GlutaMAX (Thermo Fisher, 35050-38) ("CD-Fusion medium") at 37 °C with 5% CO2. Cells were grown to logarithmic phase under shaking conditions for transfections. 1e7 cells/cuvette were transfected using nucleofection (Amaxa Nucleofector II, following the manufacturer's recommendations) with 5 µg of linearized DNA. After transfection, cells were taken up in 1 ml medium and transferred into 1 well of a 6 well microtiter plate (MTP) already containing 1 ml medium. The cells were incubated for 24 h without shaking, after which 9 ml medium were added and cells were washed (either in standard or proline-free medium). Multiple transfections were pooled, if applicable. Cells were adjusted to 2e5 viable cells/ml and 10 ml were transferred to T-25 flasks. Reference cell populations were selected using 10 µg/ml Puromycin in CD-Fusion medium. For P5CS-based selection, EX-CELL CD CHO Fusion medium (custom-made, SAFC) containing 6 mM GlutaMAX without proline and without ornithine was used ("proline-free" or "CD-Fusion w/o Pro" medium), with or without additional selection pressure.
(§2) Cell viability of the different populations was monitored over time. As soon as cell populations appeared to recover from selection pressure, cells were transferred to Shake Flask or TubeSpins for expansion in suspension under shaking conditions. Subsequently, stable cell populations transfected with IgG were seeded at 2e5 viable cells/ml for batch fermentation without selection pressure (i.e. standard CD-Fusion medium containing proline and no other selective agents). The cells were cultivated for 5-10 days, viable cell densities and productivity were monitored over time. IgG titers were determined using Poros A-HPLC method. Typically, final batch titers were recorded at a time point at which majority of cultures had around 70% viability. Stable cell populations transfected with GFP vector were subjected to analysis by flow cytometry using Guava easyCyte 8HT Benchtop Flow Cytometer (Millipore). 250 µl of cell culture were transferred to 96 MTP and washed with PBS. Dead cells were excluded from analysis using propidium iodide (PI). […]

CHO-K1 cells [2] = test: Cell viability post-transfection of transfected cell populations under selection conditions; format: cell-based, Chinese hamster
Experimental: as §1, §2

[3] = CD-Fusion w/o Pro + 0.2 mM Orn + 10 µg/ml Puromycin
[4] = CD-Fusion w/o Pro + 1 mM Orn + 10 µg/ml Puromycin
[5] = CD-Fusion w/o Pro + 5 mM Orn + 10 µg/ml Puromycin
[6] = MOCK, CD-Fusion w/o Pro + 5 mM Orn

Q: Which results are given for `NCCC[C@H](N)C(=O)O` [Orn, L-Ornithine]?
A: Frequency of high fluorescing cells (CHO-K1 cells [1]; CD-Fusion w/o Pro + 0.2 mM Orn): 2.4%; Median Fluorescence Intensity (MFI) (yellow) (CHO-K1 cells [1]; CD-Fusion w/o Pro + 0.2 mM Orn): 3337; Frequency of high fluorescing cells (CHO-K1 cells [1]; [3]): 4.1%; Median Fluorescence Intensity (MFI) (yellow) (CHO-K1 cells [1]; [3]): 4665; Frequency of high fluorescing cells (CHO-K1 cells [1]; CD-Fusion w/o Pro + 0.25 mM Ornithine): 6.3%; Frequency of high fluorescing cells (CHO-K1 cells [1]; CD-Fusion w/o Pro + 0.5 mM Ornithine): 4.1%; Frequency of high fluorescing cells (CHO-K1 cells [1]; CD-Fusion w/o Pro + 1 mM Orn): 2.4%; Median Fluorescence Intensity (MFI) (yellow) (CHO-K1 cells [1]; CD-Fusion w/o Pro + 1 mM Orn): 3121; Frequency of high fluorescing cells (CHO-K1 cells [1]; [4]): 2.8%; Median Fluorescence Intensity (MFI) (yellow) (CHO-K1 cells [1]; [4]): 3739; Frequency of high fluorescing cells (CHO-K1 cells [1]; CD-Fusion w/o Pro + 1 mM Ornithine): 2.3%; Frequency of high fluorescing cells (CHO-K1 cells [1]; CD-Fusion w/o Pro + 2 mM Ornithine): 0.7%; Frequency of high fluorescing cells (CHO-K1 cells [1]; CD-Fusion w/o Pro + 3 mM Ornithine): 2.6%; Frequency of high fluorescing cells (CHO-K1 cells [1]; CD-Fusion w/o Pro + 4 mM Ornithine): 1.5%; Frequency of high fluorescing cells (CHO-K1 cells [1]; CD-Fusion w/o Pro + 5 mM Orn): 0.5%; Median Fluorescence Intensity (MFI) (yellow) (CHO-K1 cells [1]; CD-Fusion w/o Pro + 5 mM Orn): 1435; Frequency of high fluorescing cells (CHO-K1 cells [1]; [5]): 6.1%; Median Fluorescence Intensity (MFI) (yellow) (CHO-K1 cells [1]; [5]): 4103; Frequency of high fluorescing cells (CHO-K1 cells [1]; CD-Fusion w/o Pro + 5 mM Ornithine): 1.7%; Viability on day 12 post-transfection (CHO-K1 cells [2]; [6]): 45%; Viability on day 14 post-transfection (CHO-K1 cells [2]; [6]): 43%; Viability on day 14 post-transfection (CHO-K1 cells [2]; pJF1555, CD-Fusion w/o Pro + 0.2 mM Orn): 83%; Viability on day 14 post-transfection (CHO-K1 cells [2]; pJF1555, CD-Fusion w/o Pro + 0.2 mM Orn + 10 µg/ml Puromycin): 73%; Viability on day 12 post-transfection (CHO-K1 cells [2]; pJF1555, CD-Fusion w/o Pro + 0.25 mM Ornithine): 88%; Viability on day 12 post-transfection (CHO-K1 cells [2]; pJF1555, CD-Fusion w/o Pro + 0.5 mM Ornithine): 87%; Viability on day 14 post-transfection (CHO-K1 cells [2]; pJF1555, CD-Fusion w/o Pro + 1 mM Orn): 87%; Viability on day 14 post-transfection (CHO-K1 cells [2]; pJF1555, CD-Fusion w/o Pro + 1 mM Orn + 10 µg/ml Puromycin): 75%; Viability on day 12 post-transfection (CHO-K1 cells [2]; pJF1555, CD-Fusion w/o Pro + 1 mM Ornithine): 91%; Viability on day 12 post-transfection (CHO-K1 cells [2]; pJF1555, CD-Fusion w/o Pro + 2 mM Ornithine): 49%; Viability on day 12 post-transfection (CHO-K1 cells [2]; pJF1555, CD-Fusion w/o Pro + 3 mM Ornithine): 36%; Viability on day 12 post-transfection (CHO-K1 cells [2]; pJF1555, CD-Fusion w/o Pro + 4 mM Ornithine): 55%; Viability on day 14 post-transfection (CHO-K1 cells [2]; pJF1555, CD-Fusion w/o Pro + 5 mM Orn): 51%; Viability on day 14 post-transfection (CHO-K1 cells [2]; pJF1555, CD-Fusion w/o Pro + 5 mM Orn + 10 µg/ml Puromycin): 13%; Viability on day 12 post-transfection (CHO-K1 cells [2]; pJF1555, CD-Fusion w/o Pro + 5 mM Ornithine): 53%; concentration at which recovery kinetics were affected (CHO-K1 cells [2]; pJF1555, proline-free medium, Table 8): ≥ 2 mM
